In EP0965346A2, “Use of acetylated mannan derivatives for treating chronic respiratory diseases” (CARRINGTON LABORATORIES, INC., priority 1991, dated 1993):

Columns and labels:
HIV = assay: Phase II double-blind study of acemannan alone and with AZT; assay type: in vivo; details: ARC patients, 24 weeks
Experimental: Forty-seven HIV+ patients (23 asymptomatic patients, 24 ARC patients) participated in a double-blind randomized phase II study of acemannan. The protocol was approved by the relevant ethical committees of the Hospital St. Pierre in Brussels, Belgium. In order to evaluate safety and tolerance, with or without concomitant AZT therapy, acemannan was administered during 24 weeks at a daily dose of 1000 mg (2 capsules of 125 mg, 4 times daily). The 23 asymptomatic patients were blindly allocated to receive either acemannan (11 patients, group 1) or placebo (12 patients, group 2). Of the 24 ARC patients who received 1000 mg AZT daily during the study, 12 patients (group 3) also received acemannan 1000 mg (2 capsules of 125 mg, 4 times daily) and 12 patients (group 4) also received placebo.

[1] = test system: HTLV-IIIB strain of HIV-1; assay: Viability (MTT) of HIV-1-infected MT-2 cells, AZT-acemannan checkerboard; assay type: cell-based
Experimental: Virus Strains - The HTLV-IIIB strain of HIV-1 was obtained from Dr. R. Gallo, NIH, Bethesda, Maryland. Viral stocks were prepared by propagating the virus in H9 lymphoid cells. A stock preparation of the virus was stored at -80°C. The 50% tissue culture infective dose (TCID50)/ml of cell-free virus pool stock was determined by end-point titration using MT-2 cells. Multiplicity of infection (MOI) was determined by the method of Reed and Muench.
Cell Lines - MT-2 cells were propagated in RPMI-1640 supplemented with 2 mM L-glutamine and 15% (v/v) fetal bovine serum. MT-2 cells naturally express CD4 on their surface and are thus good target cells for HIV-1 infection. In addition, they rapidly undergo cytolysis at low levels of virus replication.
Primary testing of antiviral activity - MT-2 cells were first treated with polybrene (2 mg/ml) for 30 min and then infected with HIV at a MOI of 0.03. After virus absorption, the cells were pelleted and resuspended in complete medium. […] Parallel assays were performed in triplicate, and drug cytotoxicity was measured at parallel concentrations in duplicate. […] On day 7 post-infection, cell viability was measured by the addition of MTT (450 µg/ml) to the test plates. […] Plates were read at a wavelength of 570 nm on a Vmax plate reader (Molecular Devices, Inc.). The percent change in cell viability was calculated using the following formula: % change in cell viability =((TI-TO)-(OI-TO))/((OO-TO)-(OI-TO))x 100 [formula] where: • TI is the optical density (OD) in treated, infected cells, • TO is the OD in treated, uninfected cells, • OI is the OD in untreated, infected cells, and • OO is the OD in untreated, uninfected cells.
Antiviral activity of acemannan-AZT combinations - Antiviral activity of acemannan in combination with AZT at various concentrations was evaluated using the microtiter infection assay described above. […] Combinations were evaluated in duplicate, and treated uninfected controls were used to determine drug cytotoxicity. Each compound was also evaluated alone at non-cytotoxic concentrations. […]

For `Cc1cn([C@H]2C[C@H](N=[N+]=[N-])[C@@H](CO)O2)c(=O)[nH]c1=O` [AZT, Zidovudine], the “patients who developed AIDS” value (HIV; 12 per group) was 2 patients, the “mean Karnofsky score at exit” value (HIV; AZT 1000 mg daily, acemannan 1000 mg daily, entry 84 (combination), 81 (AZT alone)) was 83 and the “mean CD4 at exit” value (HIV; entry 263/mm3 (combination), 145/mm3 (AZT alone)) was 252 /mm3. For the same compound, the protection ([1]; 0.01 µg/ml AZT alone) was “neither of which was protective on its own”, the protection ([1]; 0.32 µg/ml AZT alone) was 65% and the maximum protection ([1]; AZT alone, 0.03 to 0.32 µg/ml, MOI 0.03) was 60-67%.
